Measured values as given in patent publication US9981972B2, “N-hydroxy bicyclic hydantoin carbamates as tools for identification of serine hydrolase targets” (ABIDE THERAPEUTICS, INC., priority 2014, dated 2018).
Where two headings read alike, the source gives them in different places. Blank lines part the entries; values can stand above or below the compound they belong to.

How the values were obtained:
Assay in all cases: Gel-based competitive ABPP in vitro, mouse brain membrane proteome
Format in all cases: biochemical
LYPLA1 = target: T1, LYPLA1 (Mus musculus, UniProt P97823)
T1 construct: a complex proteome endogenously expressing LYPLA1/2 was incubated with test compound; from tissue; host or cells: mouse brain, membrane fraction
T1 sequence (P97823 whole entry): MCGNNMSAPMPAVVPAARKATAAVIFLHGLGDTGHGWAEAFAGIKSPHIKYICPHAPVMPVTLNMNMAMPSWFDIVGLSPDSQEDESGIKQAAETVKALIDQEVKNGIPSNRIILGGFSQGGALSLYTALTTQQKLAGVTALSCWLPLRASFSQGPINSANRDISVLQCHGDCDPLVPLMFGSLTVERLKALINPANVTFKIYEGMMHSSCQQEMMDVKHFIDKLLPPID
Method in brief: (§1)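 Mouse brain membrane proteome (1 mg/mL in DPBS) was treated with compound (0.1-100 μM) for 30 min at 37 °C, then labeled with FP-Rh (2 μM final, 30 min, 25 °C). Bands were resolved by SDS-PAGE and scanned in-gel, with inhibition taken from band optical density versus DMSO. Targets counted as active or anti-targets at ≥50% inhibition.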

LYPLA2 = target: T2, LYPLA2 (Mus musculus, UniProt Q9WTL7)
T2 construct: a complex proteome endogenously expressing LYPLA1/2 was incubated with test compound; from tissue; host or cells: mouse brain, membrane fraction
T2 sequence (Q9WTL7 whole entry): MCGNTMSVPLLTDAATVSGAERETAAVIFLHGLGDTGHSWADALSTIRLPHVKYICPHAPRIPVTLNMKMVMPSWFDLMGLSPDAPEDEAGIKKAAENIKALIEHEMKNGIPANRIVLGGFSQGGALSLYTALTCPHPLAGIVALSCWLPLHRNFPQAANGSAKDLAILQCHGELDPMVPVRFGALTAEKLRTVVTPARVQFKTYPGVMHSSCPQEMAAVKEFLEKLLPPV
Method in brief: as §1

FAAH = target: T3, FAAH (Mus musculus, UniProt O08914); details: for FAAH in vitro enzyme activity, % @ 10 μM: mouse brain (mem) proteome
T3 construct: from tissue; host or cells: mouse brain, membrane fraction
T3 sequence (O08914 1-579): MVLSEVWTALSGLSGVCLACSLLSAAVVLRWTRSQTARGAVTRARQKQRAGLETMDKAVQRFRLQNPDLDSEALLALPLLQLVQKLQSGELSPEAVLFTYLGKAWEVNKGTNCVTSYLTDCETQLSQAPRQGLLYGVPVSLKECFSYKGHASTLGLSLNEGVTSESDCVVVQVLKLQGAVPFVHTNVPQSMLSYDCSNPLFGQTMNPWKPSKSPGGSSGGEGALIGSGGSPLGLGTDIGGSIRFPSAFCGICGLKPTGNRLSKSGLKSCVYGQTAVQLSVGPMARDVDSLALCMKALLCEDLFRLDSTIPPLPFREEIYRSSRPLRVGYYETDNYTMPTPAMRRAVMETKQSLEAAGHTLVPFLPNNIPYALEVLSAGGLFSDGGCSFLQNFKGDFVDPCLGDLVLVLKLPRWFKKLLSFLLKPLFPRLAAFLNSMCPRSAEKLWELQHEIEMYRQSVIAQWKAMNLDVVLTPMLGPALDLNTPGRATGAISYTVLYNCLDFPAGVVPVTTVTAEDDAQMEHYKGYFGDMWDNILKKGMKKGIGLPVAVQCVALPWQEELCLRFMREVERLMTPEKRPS
Method: (§2) Assay Overview: The purpose of this assay was to determine whether test compounds can inhibit LYPLA1 and LYPLA2 in a complex proteomic lysate and to assess anti-target inhibition using a competitive activity-based proteomic profiling (ABPP) assay. In this assay, a complex proteome endogenously expressing LYPLA1/2 was incubated with test compound followed by reaction with a rhodamine-conjugated fluorophosphonate (FP-Rh) serine-hydrolase specific activity-based probe. The reaction products were separated by SDS-PAGE and visualized in-gel using a flatbed fluorescence scanner. The percentage activity remaining was determined by measuring the integrated optical density of the bands. […] Percent inhibition was calculated relative to a DMSO (no compound) control.
(§3) Protocol Summary: Mouse brain membrane proteome (50 μL reaction volume, 1 mg/mL in DPBS) was treated with 0.1-100 μM test compound (1 μL of a 50× stock in DMSO) for 30 minutes at 37° C. FP-Rh (1 μL of 50× stock in DMSO, Thermo #88318) was added to a final concentration of 2 μM. The reactions were incubated for 30 minutes at 25° C., quenched with 16 μL 4×SDS-PAGE loading buffer (reducing), separated by SDS-PAGE and visualized by in-gel fluorescent scanning. The percentage activity remaining was determined by measuring the integrated optical density of the bands relative to a DMSO-only (no compound) control. Assay Cutoff: Compounds with ≥50% inhibition of targets at 1 μM test compound concentration were considered active.
(§4) Assay Overview: The purpose of this assay was to determine IC50 values of powder samples of test compounds for enzyme of interest activity, and anti-targets in a complex proteomic lysate using a gel-based competitive ABPP assay. In this assay, a complex proteome was incubated with test compound followed by reaction with FP-Rh and SDS-PAGE analysis as described above.
(§5) Protocol Summary: Soluble HeLa cell proteome (50 μL reaction volume, 1 mg/mL in DPBS) or mouse brain membrane proteome (50 μL reaction volume, 1 mg/mL in DPBS) was treated with varying concentrations of test compound (1 μL of a 50× stock in DMSO) for 30 minutes at 37° C. FP-Rh (1 μL of 50× stock in DMSO) was added to a final concentration of 2 μM. The reaction was incubated for 30 minutes at 25° C., quenched with 16 μL 4×SDS-PAGE loading buffer (reducing), separated by SDS-PAGE and visualized by in-gel fluorescent scanning. The percentage activity remaining was determined by measuring the integrated optical density of the enzymes of interest, and anti-target bands relative to a DMSO-only (no compound) control. IC50 values were determined from dose-response curves from three replicates at each inhibitor concentration: 1, 10, 100, 1000, 10000 nM and 0.01, 0.1, 1, 10, 100, 1000, 10000, 50000, and 100000 nM.

ABHD6 = target: T4, ABHD6 (Mus musculus, UniProt Q8R2Y0); details: for ABHD6 in vitro enzyme activity, % @ 1 μM: mouse brain (mem) proteome
T4 construct: from tissue; host or cells: mouse brain, membrane fraction
T4 sequence (Q8R2Y0 1-336): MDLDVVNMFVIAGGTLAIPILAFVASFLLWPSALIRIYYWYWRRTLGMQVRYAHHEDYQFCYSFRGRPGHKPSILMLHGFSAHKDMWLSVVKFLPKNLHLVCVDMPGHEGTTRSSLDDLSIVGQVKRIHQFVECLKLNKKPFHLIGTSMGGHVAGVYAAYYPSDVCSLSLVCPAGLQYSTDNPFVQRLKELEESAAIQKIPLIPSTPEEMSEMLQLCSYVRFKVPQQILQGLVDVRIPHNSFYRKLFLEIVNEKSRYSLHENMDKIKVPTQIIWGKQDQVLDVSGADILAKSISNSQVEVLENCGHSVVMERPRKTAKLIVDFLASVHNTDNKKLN
Method: as §2, §3, §4, §5

[1] = 1 μM, mouse brain (mem) proteome

- LYPLA1 in vitro enzyme activity, % @ 1 μM (LYPLA1; [1]): 100% @
- LYPLA2 in vitro enzyme activity, % @ 1 μM (LYPLA2; [1]): 100% @
- FAAH in vitro enzyme activity, % @ 10 μM (FAAH): 0% @
- ABHD6 in vitro enzyme activity, % @ 1 μM (ABHD6): 100% @
- IC50 (ABHD6; mouse ABHD6, in vitro, read-out: mABHD6 in vitro potency (IC50)): 2.2 nM
Structure (SMILES): O=C(ON1C(=O)[C@@H]2CN(C(=O)N3CCOCC3)CCN2C1=O)N1CCC(CCc2ccc(Cl)cc2)CC1 [Compound 50, (S)-7-(morpholine-4-carbonyl)-1,3-dioxohexahydroimidazo[1,5-a]pyrazin-2(3H)-yl 4-(4-chloro-phenethyl)piperidine-1-carboxylate]

- LYPLA1 in vitro enzyme activity, % @ 10 μM (LYPLA1; mouse brain (mem) proteome): 50% @
- LYPLA2 in vitro enzyme activity, % @ 10 μM (LYPLA2; mouse brain (mem) proteome): 50% @
- FAAH in vitro enzyme activity, % @ 10 μM (FAAH): 0% @
- ABHD6 in vitro enzyme activity, % @ 1 μM (ABHD6): 100% @
Structure (SMILES): C#CCOc1ccc(N2CCN(C(=O)ON3C(=O)[C@@H]4CN(CC5CCN(Cc6ccccc6)CC5)CCN4C3=O)CC2)cc1 [Compound 46, (S)-7-((1-benzylpiperidin-4-yl)methyl)-1,3-dioxo-hexahydroimidazo[1,5-a]pyrazin-2(3H)-yl 4-(4-(prop-2-ynyloxy)phenyl)piperazine-1-carboxylate]

- inhibition at 1 µM (LYPLA1; 1 μM compound, 30 min, one replicate, read-out: LYPLA1 % INH 1 μM): 100%
- inhibition at 10 µM (LYPLA1; 10 μM compound, 30 min, one replicate, read-out: LYPLA1 % INH 10 μM): 100%
- inhibition at 100 µM (LYPLA1; 100 μM compound, 30 min, one replicate, read-out: LYPLA1 % INH 100 μM): 100%
- inhibition at 1 µM (LYPLA2; 1 μM compound, 30 min, one replicate, read-out: LYPLA2 % INH 1 μM): 100%
- inhibition at 10 µM (LYPLA2; 10 μM compound, 30 min, one replicate, read-out: LYPLA2 % INH 10 μM): 100%
- inhibition at 100 µM (LYPLA2; 100 μM compound, 30 min, one replicate, read-out: LYPLA2 % INH 100 μM): 100%
- selectivity for LYPLA1/2 over FAAH (FAAH; LYPLA versus FAAH): ~13 fold
- IC50 (FAAH; anti-target, mouse brain membrane proteome): 3.15 µM
- IC50 (ABHD6; anti-target, mouse brain membrane proteome, read-out: ABHD6 IC50): 3.15 nM
Structure (SMILES): O=C(ON1C(=O)C2CN(C(=O)N3CCOCC3)CCN2C1=O)N1CCC(CCc2ccc(Cl)cc2)CC1 (stereo not shown) [Compound 1, 7-(morpholine-4-carbonyl)-1,3-dioxohexahydroimidazo[1,5-a]pyrazin-2(3H)-yl 4-(4-chloro-phenethyl)piperidine-1-carboxylate]

- LYPLA1 in vitro enzyme activity, % @ 10 μM (LYPLA1; mouse brain (mem) proteome): 0% @
- LYPLA2 in vitro enzyme activity, % @ 10 μM (LYPLA2; mouse brain (mem) proteome): 0% @
- FAAH in vitro enzyme activity, % @ 10 μM (FAAH): 0% @
- ABHD6 in vitro enzyme activity, % @ 1 μM (ABHD6): 100% @
Structure (SMILES): C#CCOc1ccc(N2CCN(C(=O)ON3C(=O)[C@H]4CN(Cc5ccc(Oc6ccccc6)cc5)CCN4C3=O)CC2)cc1 [Compound 45, (R)-1,3-dioxo-7-(4-phenoxybenzyl)-hexahydroimidazo[1,5-a]pyrazin-2(3H)-yl 4-(4-(prop-2-ynyloxy)phenyl)piperazine-1-carboxylate]
